# Reference: patent US20050004126A1 (priority 2001, published 2005)
# Target: MMP-13CD (catalytic domain of collagenase 3) (Homo sapiens, UniProt P45452)
# Test: Thiopeptolide hydrolysis assay, MMP-13;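 also: inhibition of enzymatic thiopeptolide substrate cleavage (100 µM) in pH 6.0 MES buffer with CaCl2 and DTNB, comparing hydrolysis with versus without inhibitor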
# Conditions: IC50 μM, Table V; MMP-13
row,IC50 [µM],SMILES
1,0.0013,"COc1ccc(CNC(=O)c2ccc3c(c2)c(=O)n(Cc2ccc(CC(=O)O)cc2)c2nncn32)cc1 [(4-{7-[(4-Methoxy)-benzylcarbamoyl]-5-oxo-5H-[1,2,4]triazolo[4,3-a]quinazolin-4-ylmethyl}-phenyl)-acetic acid]"
2,0.0087,"COc1ccc(CNC(=O)c2ccc3c(c2)c(=O)n(Cc2ccc(C(=O)N(C)C)cc2)c2nncn32)cc1 [4-(4-Dimethylcarbamoyl-benzyl)-5-oxo-4,5-dihydro-[1,2,4]triazolo[4,3-a]quinazoline-7-carboxylic acid 4-methoxy-benzylamide]"
3,0.0055,"COc1ccc(CNC(=O)c2ccc3c(c2)c(=O)n(Cc2ccccc2)c2nncn32)cc1 [N-(4-Methoxybenzyl)-4-benzyl-5-oxo-4,5-dihydro[1,2,4]triazolo [4,3-a]quinazoline-7-carboxamide]"
4,0.0011,"O=C(O)Cc1ccc(Cn2c(=O)c3cc(C(=O)NCc4ccc5c(c4)OCO5)ccc3n3cnnc23)cc1 [(4-{7-[(1,3-Benzodioxol-5-ylmethyl)-carbamoyl]-5-oxo-5H-[1,2,4]triazolo[4,3-a]quinazolin-4-ylmethyl}-phenyl)-acetic acid]"
5,0.0011,"O=C(O)c1ccc(Cn2c(=O)c3cc(C(=O)NCc4ccc(F)cc4)ccc3n3cnnc23)cc1 [4-{7-[(4-Fluoro)-benzylcarbamoyl]-5-oxo-5H-[1,2,4]triazolo[4,3-a]quinazol-4-ylmethyl}benzoic acid]"
6,2.1,"O=C(NCc1ccncc1)c1ccc2c(c1)c(=O)n(Cc1ccccc1)c1nccn21 [4-Benzyl-5-oxo-4,5-dihydro-imidazo[1,2-a]quinazoline-7-carboxylic acid (pyridin-4-ylmethyl)-amide]"
7,0.0023,"N#Cc1ccc(Cn2c(=O)c3cc(C(=O)NCc4ccc5c(c4)OCO5)ccc3n3cnnc23)cc1 [Synthesis Example 58, N-(3,4-Methylenedioxybenzyl)-4-(4-cyanobenzyl)-5-oxo-4H-[1,2,4]triazolo[4,3-a]quinazol-7-ylcarboxamide]"

row,SMILES,IC50 [µM]
1,"O=C(NCc1ccncc1)c1ccc2c(c1)c(=O)n(Cc1ccccc1)c1nncn21 [4-Benzyl-5-oxo-4,5-dihydro-[1,2,4]triazolo[4,3-a]quinazoline-7-carboxylic acid (pyridin-4-ylmethyl)-amide]",0.04

# Same assay, conditions: IC50 μM, Table VII; MMP-13
row,SMILES,IC50 [µM]
1,"COc1ccc(CC#Cc2ccc3c(c2)c(=O)n(Cc2ccccc2)c2nncn32)cc1 [Synthesis Example 72, 4-Benzyl-7-[(4-methoxyphenyl)-prop-1-ynyl]-4H-[1,2,4]-triazolo[4,3-a]quinazolin-5-one]",0.0015
2,"COc1ccc(CC#Cc2cc3c(=O)n(Cc4ccc(C(=O)O)cc4)c(=O)n(C)c3cn2)cc1 [Synthesis Example 70, 4-{6-[3-(4-Methoxy-phenyl)-prop-1-ynyl]-1-methyl-2,4-dioxo-1,4-dihydro-2H-pyrido[3,4-d]pyrimidin-3-ylmethyl}-benzoic acid]",0.0012
3,"Cn1c(=O)n(Cc2ccc(C(=O)O)cc2)c(=O)c2cc(C#CCc3ccccc3)ncc21 [Synthesis Example 69, 4-[1-Methyl-2,4-dioxo-6-(3-phenyl-prop-1-ynyl)-1,4-dihydro-2H-pyrido[3,4-d]pyrimidin-3-ylmethyl]-benzoic acid]",0.0065

# Second part, the compound after the results:
row,IC50 [µM],SMILES
1,0.01,"COC(=O)c1ccc(Cn2c(=O)c3cc(C#CCc4ccc(OC)cc4)ccc3n(C)c2=O)cc1 [Synthesis Example 66, Methyl 4-{6-[3-(4-methoxyphenyl)-prop-1-ynyl]-1-methyl-2,4-dioxo-1,4-dihydro-2H-quinazolin-3-ylmethyl}-benzoate]"
2,0.0006,"COc1ccc(CC#Cc2ccc3c(c2)c(=O)n(Cc2ccc(C(=O)O)cc2)c(=O)n3C)cc1 [Synthesis Example 68, 4-{6-[3-(4-Methoxy-phenyl)-prop-1-ynyl]-1-methyl-2,4-dioxo-1,4-dihydro-2H-quinazolin-3-ylmethyl}-benzoic acid]"

# Same assay, conditions: MMP13 IC50 μM, Table IVb
row,SMILES,IC50 [µM]
1,COc1ccc(CNC(=O)c2ccc3c(c2)c(=O)n(CCS(=O)(=O)c2ccccc2)c(=O)n3C)cc1,0.84
2,COC(=O)Cn1c(=O)n(Cc2ccccc2)c(=O)c2cc(C(=O)NCc3ccc4c(c3)OCO4)ccc21,0.16
3,CCn1c(=O)n(Cc2cccc(F)c2)c(=O)c2cc(C(=O)NCc3cccnc3)ccc21,0.36
4,Cn1c(=O)n(CC=Cc2ccncc2)c(=O)c2cc(C(=O)NCc3ccncc3)ccc21,0.24
5,Cn1c(=O)n(Cc2ccc(F)c(F)c2)c(=O)c2cc(C(=O)NCc3ccncc3)ccc21,0.032
6,COc1ccc(CNC(=O)c2cc3c(=O)n(Cc4ccc(C#N)cc4)c(=O)n(C)c3cn2)cc1,0.0011
7,COc1cc(CNC(=O)c2ccc3c(c2)c(=O)n(Cc2ccc(Cl)cc2)c(=O)n3C)ccn1,0.011
8,COc1ccc(CNC(=O)c2ccc3c(c2)c(=O)n(CC2CCCCC2)c(=O)n3C)cc1,0.042
9,COc1ccc(CNC(=O)c2ccc3c(c2)c(=O)n(Cc2ccc(C(=O)OCCN(C)C)c(OC)c2)c(=O)n3C)cc1,0.5
10,CCOC(=O)COc1ccc(CNC(=O)c2ccc3c(c2)c(=O)n(Cc2ccccc2)c(=O)n3C)cc1,0.72
11,COc1ccc(CNC(=O)c2ccc3c(c2)c(=O)n(CCO)c(=O)n3C)cc1,6.35
12,CC(c1cccc2ccccc12)n1c(=O)c2cc(C(=O)NCc3ccc4c(c3)OCO4)ccc2n(C)c1=O (stereo not drawn),9.4
13,COc1cc(CNC(=O)c2ccc3c(c2)c(=O)n(Cc2ccc(F)cc2)c(=O)n3C)ccn1,0.011
14,CCOC(=O)Cn1c(=O)c2cc(C(=O)NCc3ccc(OC)cc3)ccc2n(C)c1=O,0.65
15,COc1ccc(CNC(=O)c2ccc3c(c2)c(=O)n(CCCc2ccccc2)c(=O)n3C)cc1,0.59
16,COc1ccc(CNC(=O)c2ccc3c(c2)c(=O)n(CCN2CCOCC2)c(=O)n3C)cc1,9.3
17,COc1ccc(CNC(=O)c2ccc3c(c2)c(=O)n(CC=C(C)C)c(=O)n3C)cc1,0.2
18,Cn1c(=O)n(Cc2ccc(F)cc2)c(=O)c2cc(C(=O)NCc3cccnc3)ccc21,0.12

# Other lines, results leading:
row,IC50 [µM],SMILES
1,0.023,COc1ccc(CNC(=O)c2ccc3c(c2)c(=O)n(Cc2cccc(OC)c2)c(=O)n3C)cc1
2,0.07,COc1ccc(CNC(=O)c2ccc3c(c2)c(=O)n(Cc2ccc(CN)cc2)c(=O)n3C)cc1
3,0.0029,COc1ccc(CNC(=O)c2ccc3c(c2)c(=O)n(Cc2ccc(-c4nc(C)no4)cc2)c(=O)n3C)cc1
4,0.008,COc1ccc(CNC(=O)c2ccc3c(c2)c(=O)n(Cc2ccc(CC(=O)N(C)C)cc2)c(=O)n3C)cc1
5,0.008,COc1ccc(CNC(=O)c2ccc3c(c2)c(=O)n(Cc2ccc(S(N)(=O)=O)cc2)c(=O)n3C)cc1
6,0.0125,COc1ccc(CNC(=O)c2ccc3c(c2)c(=O)n(Cc2ccc(S(C)(=O)=O)cc2)c(=O)n3C)cc1
7,0.0016,COc1ccc(CNC(=O)c2ccc3c(c2)c(=O)n(Cc2ccc(C(=O)O)c(O)c2)c(=O)n3C)cc1
8,0.015,COc1ccc(CNC(=O)c2ccc3c(c2)c(=O)n(Cc2ccc(NC(=O)OC(C)(C)C)nc2)c(=O)n3C)cc1
9,0.0043,COc1cccc(CNC(=O)c2ccc3c(c2)c(=O)n(Cc2ccc(Cl)cc2)c(=O)n3C)c1
10,0.013,COc1ccc(CNC(=O)c2ccc3c(c2)c(=O)n(Cc2ccc(Br)cc2)c(=O)n3C)cc1
11,0.0009,COc1cccc(CNC(=O)c2ccc3c(c2)c(=O)n(Cc2ccc(C(=O)O)cc2)c(=O)n3C)c1
12,0.0079,COc1ccc(CNC(=O)c2ccc3c(c2)c(=O)n(Cc2cccc(F)c2)c(=O)n3C)cc1
13,0.012,COc1ccc(CNC(=O)c2ccc3c(c2)c(=O)n(Cc2ccc(C(=O)N(C)C)cc2)c(=O)n3C)cc1
14,0.0023,COc1ccc(CNC(=O)c2ccc3c(c2)c(=O)n(Cc2ccc(-c4nnnn4C)cc2)c(=O)n3C)cc1
15,0.003,CCn1c(=O)n(Cc2ccc(C(=O)O)cc2)c(=O)c2cc(C(=O)NCc3ccc(OC)cc3)ccc21
16,1.95,COc1ccc(CNC(=O)c2ccc3c(c2)c(=O)n(CC(N)=O)c(=O)n3C)cc1
17,0.014,COc1ccc(CNC(=O)c2ccc3c(c2)c(=O)n(Cc2ccc([N+](=O)[O-])cc2)c(=O)n3C)cc1
18,2.9,Cn1c(=O)n(Cc2ccccc2)c(=O)c2cc(C(=O)NCc3ccc(OCC(=O)O)cc3)ccc21
19,0.06,COc1ccc(Cn2c(=O)c3cc(C(=O)NCc4ccncc4)ccc3n(C)c2=O)cc1
20,0.0049,COc1ccc(CNC(=O)c2ccc3c(c2)c(=O)n(Cc2ccc(-c4noc(C)n4)cc2)c(=O)n3C)cc1
21,0.0145,COc1ccc(CNC(=O)c2ccc3c(c2)c(=O)n(Cc2ccc(F)cc2)c(=O)n3C)cc1
22,0.0028,COC(=O)c1ccc(Cn2c(=O)c3cc(C(=O)NCc4ccc5c(c4)OCO5)ccc3n(C)c2=O)cc1
23,0.0084,COc1ccc(CNC(=O)c2ccc3c(c2)c(=O)n(Cc2ccc(C(=O)O)s2)c(=O)n3C)cc1
24,0.15,COc1ccc(CNC(=O)c2ccc3c(c2)c(=O)n(CCOc2ccc(F)cc2)c(=O)n3C)cc1
25,0.002,Cn1c(=O)n(Cc2ccc(C(=O)O)cc2)c(=O)c2cc(C(=O)NCc3ccc(O)cc3)ccc21
26,0.0018,COc1ccc(CNC(=O)c2ccc3c(c2)c(=O)n(Cc2ccc(C(=O)O)c(C)c2)c(=O)n3C)cc1
27,0.0057,Cn1c(=O)n(Cc2ccc(C(=O)O)cc2)c(=O)c2cc(C(=O)NCc3ccncc3)ccc21
28,0.004,COc1ccc(CNC(=O)c2ccc3c(c2)c(=O)n(Cc2ccc(NS(C)(=O)=O)cc2)c(=O)n3C)cc1
29,0.12,COC(=O)c1cccc(Cn2c(=O)c3cc(C(=O)NCc4ccc(OC)cc4)ccc3n(C)c2=O)c1
30,0.0064,CNC(=O)c1ccc(Cn2c(=O)c3cc(C(=O)NCc4ccc(OC)cc4)ccc3n(C)c2=O)cc1

# Same assay, conditions: MMP13 IC50 (nM), Table II
row,IC50 [µM],SMILES
1,1.5,O=C(OCc1ccccc1)c1cc(C(=O)OCc2ccccc2)cc([N+](=O)[O-])c1 [5-Nitro-isophthalic acid dibenzyl ester]
2,4.1,Nc1ccc(C(=O)NCc2ccc3c(c2)OCO3)cc1C(=O)NCc1ccc2c(c1)OCO2
3,5.7,CCOCCNC(=O)c1ccc(OC)c(C(=O)NCc2ccc3c(c2)OCO3)c1

# Same assay, conditions: MMP13 IC50 (μM), Table 1b
row,IC50 [µM],SMILES
1,0.56,Cc1c(=O)n(CCS(=O)(=O)Cc2ccccc2)c(=O)n2cc(C(=O)NCc3ccc(F)cc3)sc12

# Same assay, conditions: read-out: MMP 13 IC50 μM; Table III
row,IC50 [µM],SMILES
1,0.0185,COc1cccc(CNC(=O)c2cc3c(=O)n(Cc4ccc(OC(C)(C)C(=O)O)cc4)c(=O)n(C)c3s2)c1
